{"source": "paper PMC12030497", "about": "“Plasma Protein Binding, Biostability, Metabolite Profiling, and CYP450 Phenotype of TPB15 Across Different Species: A Novel Smoothened Inhibitor for TNBC Therapy” (Pharmaceutics, 2025)", "key": {"[1]": {"assay": "Stability in dog plasma", "format": "in vitro ADME, beagle dog", "settings": "37 °C, 453 μg/L", "procedure": "(§1) A total of 696.5 μL of plasma from each species (healthy mice, rat, dog, monkey, and human) were spiked with 3.5 μL of TPB15 stock solution ([…] in DMSO), resulting in a final TPB15 concentration of 453 μg/L in plasma. The mixture was then aliquoted into three tubes, each with a volume of 200 μL, maintaining a final DMSO concentration of 0.5%. After incubation in a water bath at 37 °C for 0, 30, 60, 90, and 120 min, 100 µL samples were transferred into EP tubes. Subsequently, 10 µL of internal standard working solution were added, followed by vortex mixing. Then, 500 µL of ethyl acetate were added, and the mixture was vortexed again before being centrifuged at 14,800 rpm at 4 °C for 10 min. A total of 400 µL of the supernatant were transferred into a new EP tube and placed in a vacuum concentrator (Bionoon-VAC2) (Bionoon Biotech, Shanghai, China) to dry for 1 h. The dried residue was reconstituted with 100 µL of mobile phase, vortex mixed thoroughly, and centrifuged again at 14,800 rpm at 4 °C for 10 min. A volume of 5 µL of the supernatant was then taken for LC-MS/MS analysis to determine the drug concentration. Additionally, a blank control group was established, in which PBS buffer was used in place of blank plasma in the incubation system."}, "[2]": {"system": "mice", "parameters": "method as in PMID 32690258", "settings": "acute toxicity; cited from earlier work"}, "[3]": {"system": "MDA-MB-468 xenograft", "parameters": "method as in PMID 32690258", "settings": "MDA-MB-468 xenograft nude mouse model, compared with positive control drug Vismodegib; cited from earlier work"}, "[4]": {"system": "CYP450 enzymes in human liver microsomes", "assay": "Metabolic enzyme phenotype of TPB15 in human liver microsomes with selective CYP450 inhibitors", "format": "in vitro ADME", "protocol": "The specific procedure was as follows: a total of 0.5 μL of the substrate TPB15 and 0.5 μL of each specific inhibitor were mixed with 449 μL of human liver microsomes, and the mixture was incubated at 37 °C for 10 min. Subsequently, 50 μL of NADPH with a concentration of 10 mM in PBS were introduced to initiate the reaction. After 90 min, 50 μL of the reaction mixture were transferred to a 150 μL ice-cold methanol solution containing an internal standard to terminate the reaction. The mixture was vortexed for 2 min and then centrifuged at 4 °C at 14,800 rpm for 10 min. A volume of 130 μL of the supernatant was then transferred to a new EP tube, which was centrifuged again at 4 °C at 14,800 rpm for another 10 min. Finally, 5 μL of the supernatant were injected for the determination of substrate TPB15 concentration. Three parallel samples were prepared for each time point. The experiment also included a positive control group and a negative control group. In the positive control group, substrate TPB15 was incubated with human liver microsomes for 90 min without the addition of inhibitors. In the negative control group, the substrate TPB15 was incubated for 90 min without inhibitors, with human liver microsomes replaced by an equal volume of phosphate-buffered saline (PBS). The metabolic rate of TPB15 in human liver microsomes was represented by the elimination rate of the substrate TPB15."}, "[5]": {"system": "normal mammary epithelial cells (MCF10A)", "parameters": "method as in PMID 32690258", "settings": "read-out: half-maximal inhibitory concentration (IC50) on normal mammary epithelial cells (MCF10A); cited from earlier work"}, "[6]": {"system": "MDA-MB-468", "parameters": "method as in PMID 32690258", "settings": "MDA-MB-468, in vitro; cited from earlier work"}, "[7]": {"assay": "Stability in monkey plasma", "format": "in vitro ADME, cynomolgus monkey", "settings": "37 °C, 453 μg/L", "procedure": "as §1"}, "[8]": {"assay": "Stability in rat plasma", "format": "in vitro ADME, SD rat", "settings": "37 °C, 453 μg/L", "procedure": "as §1"}, "[9]": {"assay": "Metabolic stability in monkey liver microsomes (MLM)", "format": "in vitro ADME, crab-eating monkey", "procedure": "A total of 450 μL liver microsomes from mice, rat, dog, monkey, and human were spiked with 0.5 μL of TPB15 solution and pre-incubated in a water bath at 37 °C for 10 min. Following this, 50 μL of NADPH were added to initiate the reaction. The concentrations of each substance in the incubation system are detailed in Table 1. After initiating the metabolic reaction, 50 μL aliquots were removed at incubation times of 0, 5, 15, 30, 45, 60, and 90 min and transferred to 150 μL of icy methanol solution containing the internal standard to terminate the reaction. The mixtures were swirled for 2 min and then centrifuged at 14,800 rpm at 4 °C for 10 min. […] Three samples were prepared in parallel at each time point. Additionally, both a positive control group and a blank control group were established. In the positive control group, substrate testosterone was incubated with liver microsomes from mice, rat, dog, monkey, and human. The concentrations of substrate testosterone were measured at 0 and 90 min, and the changes in concentration before and after incubation were compared to confirm the activity of the liver microsomes. The blank control group included one drug-containing inactivated liver microsome sample for each species. The metabolic stability parameters, including in vitro elimination half-life (T1/2) and in vitro intrinsic clearance rate (CLint), were calculated based on this graph using the following formulas: in vitro elimination half-life (T1/2) = −0.693/k and in vitro intrinsic clearance rate (CLint) = (0.693 × incubation medium (mL))/(liver microsomes (mg) × T1/2)."}, "[10]": {"parameters": "method as in PMID 39158678", "settings": "pharmacokinetic studies in rats; cited from earlier work"}, "[11]": {"assay": "Plasma protein binding by ultrafiltration, rat plasma", "format": "in vitro ADME, SD rat", "procedure": "To prepare plasma samples of TPB15 at final concentrations of 4, 8, and 16 μg/mL, 1 μL of TPB15 dissolved in dimethyl sulfoxide (DMSO) at low (400 μg/mL), medium (800 μg/mL), and high (1600 μg/mL) concentrations was added to 99 μL of blank plasma obtained from humans, rats, mice, monkeys, and dogs. Each concentration was prepared in six replicates. The samples were then divided into two groups: one for determining the pre-ultrafiltration concentration (Cpre) and the other for measuring the post-ultrafiltration concentration (Ct), following the evaluation of the non-specific binding coefficient (NSB) of TPB15 to the ultrafiltration tubes. For Cpre determination, 10 μL of the sample was mixed with 990 μL of plasma, vortexed thoroughly, and analyzed for drug concentration using the previously reported liquid chromatography–tandem mass spectrometry (LC-MS/MS) method. For Ct determination, the samples were first incubated in a water bath at 37 °C for 3 h. After incubation, they were transferred to ultrafiltration tubes and centrifuged at 14,000 rpm for 20 min at 4 °C using a centrifuge (Sigma 3K-15) from Sigma Laborzentrifugen GmbH (Osterode am Harz, Germany). After centrifugation, 10 μL of the ultrafiltrate was mixed with 990 μL of plasma, vortexed, and analyzed for concentration using the same LC-MS/MS method. The formula for calculating the plasma protein binding rate (PPB) is as follows: PPB (%) = [1 − Ct/(1 − NSB)/Cpre] × 100%. (NSB: non-specific binding coefficient. […])."}, "[12]": {"system": "MDA-MB-231", "parameters": "method as in PMID 32690258", "settings": "MDA-MB-231, in vitro; cited from earlier work"}}}
{"smiles": "O=C(Nc1ccc(Cl)c(-c2nnc3c(Cl)cccn23)c1)c1ccc(Cl)nc1Cl", "note": "[TPB15]", "values": [{"measurement": "Remaining proportion of substrate TPB15 (%) Beagle dog", "setting": "[1]; incubation 0 min", "result": "100.0 ± 1.1", "unit": "%"}, {"measurement": "Remaining proportion of substrate TPB15 (%) Beagle dog", "setting": "[1]; incubation 30 min", "result": "99.3 ± 0.7", "unit": "%"}, {"measurement": "Remaining proportion of substrate TPB15 (%) Beagle dog", "setting": "[1]; incubation 60 min", "result": "98.9 ± 0.4", "unit": "%"}, {"measurement": "Remaining proportion of substrate TPB15 (%) Beagle dog", "setting": "[1]; incubation 90 min", "result": "97.1 ± 1.4", "unit": "%"}, {"measurement": "Remaining proportion of substrate TPB15 (%) Beagle dog", "setting": "[1]; incubation 120 min", "result": "98.0 ± 0.8", "unit": "%"}, {"measurement": "lethal dose for 50% of the population (LD50)", "setting": "[2]", "result": 3875.35, "unit": "mg/kg"}, {"measurement": "tumor inhibitory effect", "setting": "[3]", "result": "robust tumor inhibitory effect, surpassing that of the positive control drug Vismodegib"}, {"measurement": "primary metabolic enzymes involved in TPB15 metabolism", "setting": "[4]", "result": "CYP2C9 and CYP3A4"}, {"measurement": "IC50", "setting": "[5]", "result": 169, "unit": "µM"}, {"measurement": "inhibition of proliferation of TNBC cell line", "setting": "[6]", "result": "significantly inhibits the proliferation"}, {"measurement": "Remaining proportion of substrate TPB15 (%) Cynomolgus monkey", "setting": "[7]; incubation 0 min", "result": "100.0 ± 1.7", "unit": "%"}, {"measurement": "Remaining proportion of substrate TPB15 (%) Cynomolgus monkey", "setting": "[7]; incubation 30 min", "result": "98.2 ± 0.6", "unit": "%"}, {"measurement": "Remaining proportion of substrate TPB15 (%) Cynomolgus monkey", "setting": "[7]; incubation 60 min", "result": "96.3 ± 1.2", "unit": "%"}, {"measurement": "Remaining proportion of substrate TPB15 (%) Cynomolgus monkey", "setting": "[7]; incubation 90 min", "result": "99.3 ± 0.9", "unit": "%"}, {"measurement": "Remaining proportion of substrate TPB15 (%) Cynomolgus monkey", "setting": "[7]; incubation 120 min", "result": "98.3 ± 1.5", "unit": "%"}, {"measurement": "Remaining proportion of substrate TPB15 (%) SD rat", "setting": "[8]; incubation 0 min", "result": "100.0 ± 0.6", "unit": "%"}, {"measurement": "Remaining proportion of substrate TPB15 (%) SD rat", "setting": "[8]; incubation 30 min", "result": "99.7 ± 1.5", "unit": "%"}, {"measurement": "Remaining proportion of substrate TPB15 (%) SD rat", "setting": "[8]; incubation 60 min", "result": "97.6 ± 0.6", "unit": "%"}, {"measurement": "Remaining proportion of substrate TPB15 (%) SD rat", "setting": "[8]; incubation 90 min", "result": "99.1 ± 0.3", "unit": "%"}, {"measurement": "Remaining proportion of substrate TPB15 (%) SD rat", "setting": "[8]; incubation 120 min", "result": "98.0 ± 0.6", "unit": "%"}, {"measurement": "T1/2 (min), in vitro elimination half-life", "setting": "[9]; MLM, 5 μM TPB15, 0.5 mg/mL microsomes", "result": 88.34, "unit": "min"}, {"measurement": "remaining proportion of TPB15 in liver microsomes", "setting": "[9]; crab-eating monkey microsomes, 90 min, 5 μM TPB15, 0.5 mg/mL, NADPH 1 mM", "result": "48.0 ± 2.86", "unit": "%"}, {"measurement": "microsomal CLint at 5 μM", "setting": "[9]; monkey liver microsomes, MLM, 5 μM TPB15, 0.5 mg/mL microsomes, read-out: CLint (mL/min/mg), in vitro intrinsic clearance rate", "result": 0.0941, "unit": "mL/min/mg"}, {"measurement": "half-life at 5 μM", "setting": "[9]; monkey liver microsomes, MLM, 5 μM TPB15, 0.5 mg/mL microsomes, read-out: T1/2 (min), in vitro elimination half-life", "result": 88, "unit": "min"}, {"measurement": "half-life in rats", "setting": "[10]", "result": "relatively long half-life"}, {"measurement": "fraction unbound at 3 h", "setting": "[11]; SD, rat plasma, 4 to 16 μg/mL, read-out: average plasma protein binding rates, range over concentrations", "result": "0.176 to 0.191"}, {"measurement": "fraction unbound at 3 h, 4 μg/mL", "setting": "[11]; Sprague-Dawley, rat, plasma, 4 μg/mL TPB15, ultrafiltration, 37 °C 3 h, read-out: Plasma Protein Binding (%) SD Rat (converted)", "result": 0.183}, {"measurement": "fraction unbound at 3 h, 8 μg/mL", "setting": "[11]; Sprague-Dawley, rat, plasma, 8 μg/mL TPB15, ultrafiltration, 37 °C 3 h, read-out: Plasma Protein Binding (%) SD Rat (converted)", "result": 0.191}, {"measurement": "fraction unbound at 3 h, 16 μg/mL", "setting": "[11]; Sprague-Dawley, rat, plasma, 16 μg/mL TPB15, ultrafiltration, 37 °C 3 h, read-out: Plasma Protein Binding (%) SD Rat (converted)", "result": 0.176}, {"measurement": "inhibition of proliferation of TNBC cell line", "setting": "[12]", "result": "significantly inhibits the proliferation"}]}
